# Experimental data taken from PubChem BioAssay (NCI).
#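 Results reflect a 48-hour exposure of cells in 96-well plates to compound at five concentrations. At the GI50, growth is halved. TGI denotes the concentration required for complete inhibition of growth.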
# Tested on: K-562 leukemia
# Assay: DTP human tumour cell line panel, 48 h
SMILES,GI50,TGI
CCn1c(-c2nonc2N)nc2c(C#CC(C)(C)O)nc(OC[C@H](N)c3ccccc3)cc21,5.09 µM,14 µM
O=C1/C(=C/c2ccc(Br)cc2)COc2ccc(O)c(O)c21,0.282 µM,> 100 µM
N#Cc1c(NN)n(C2OC(CO)C(O)C2O)c2ncnc(N)c12 (centres undefined),0.0181 µM,0.176 µM
CC(CCC=O)CCOCc1ccccc1 (centres undefined),–,> 100 µM
Cc1ccc(C)c(C2=C(c3cn(C)c4ccccc34)C(=O)NC2=O)c1,15.1 µM,> 25 µM
O=C(Nc1nc2ccc(C(F)(F)F)cc2s1)c1cc(Cl)ccc1O,0.351 µM,> 100 µM
COc1cnc2c(c1)C(=O)c1c-2n(CCCNC(C)C)c(=O)c2cc(Cl)ccc12,0.451 µM,2.13 µM
COc1ccc2c(c1)CCCC(Br)C2=O (centres undefined),–,18.7 µM
COc1ccc(-n2cc(-c3cc(OC)c(OC)c(OC)c3)c(C(=O)C(F)(F)F)c2C)cc1,22 µM,> 100 µM
COc1cc(C2CC(c3cccc(Br)c3)=NN2C(C)=O)cc(OC)c1OC (centres undefined),0.114 µM,11.7 µM
COc1cc(N(CCC#N)CCC#N)ccc1/C(N=Nc1ccc([N+](=O)[O-])cc1)=N/NC(=O)c1cc(Br)ccc1O,63.1 µg/mL,> 150 µg/mL
CS(=O)(=O)Nc1ccc2c(c1)oc(=O)c1ccccc12,–,> 100 µM

# Tested on: MDA-MB-435
# Assay: DTP human tumour cell line panel, 48 h
SMILES,GI50,TGI
CCn1c(-c2nonc2N)nc2c(C#CC(C)(C)O)nc(OC[C@H](N)c3ccccc3)cc21,4.79 µM,9.42 µM
O=C1/C(=C/c2ccc(Br)cc2)COc2ccc(O)c(O)c21,0.427 µM,1.59 µM
N#Cc1c(NN)n(C2OC(CO)C(O)C2O)c2ncnc(N)c12 (centres undefined),0.104 µM,0.916 µM
CC(CCC=O)CCOCc1ccccc1 (centres undefined),–,> 100 µM
Cc1ccc(C)c(C2=C(c3cn(C)c4ccccc34)C(=O)NC2=O)c1,24 µM,> 25 µM
O=C(Nc1nc2ccc(C(F)(F)F)cc2s1)c1cc(Cl)ccc1O,1.69 µM,> 100 µM
COc1cnc2c(c1)C(=O)c1c-2n(CCCNC(C)C)c(=O)c2cc(Cl)ccc12,1.14 µM,2.42 µM
COc1ccc2c(c1)CCCC(Br)C2=O (centres undefined),–,5.99 µM
COc1ccc(-n2cc(-c3cc(OC)c(OC)c(OC)c3)c(C(=O)C(F)(F)F)c2C)cc1,43.3 µM,> 100 µM
COc1cc(C2CC(c3cccc(Br)c3)=NN2C(C)=O)cc(OC)c1OC (centres undefined),0.0514 µM,0.297 µM
COc1cc(N(CCC#N)CCC#N)ccc1/C(N=Nc1ccc([N+](=O)[O-])cc1)=N/NC(=O)c1cc(Br)ccc1O,52.2 µg/mL,> 150 µg/mL
CS(=O)(=O)Nc1ccc2c(c1)oc(=O)c1ccccc12,–,> 100 µM

# Tested on: NCI-H226 lung
# Assay: DTP human tumour cell line panel, 48 h
SMILES,GI50,TGI
CCn1c(-c2nonc2N)nc2c(C#CC(C)(C)O)nc(OC[C@H](N)c3ccccc3)cc21,11.9 µM,15.8 µM
O=C1/C(=C/c2ccc(Br)cc2)COc2ccc(O)c(O)c21,2.01 µM,5.52 µM
N#Cc1c(NN)n(C2OC(CO)C(O)C2O)c2ncnc(N)c12 (centres undefined),0.496 µM,2.91 µM
CC(CCC=O)CCOCc1ccccc1 (centres undefined),–,> 100 µM
Cc1ccc(C)c(C2=C(c3cn(C)c4ccccc34)C(=O)NC2=O)c1,> 25 µM,> 25 µM
O=C(Nc1nc2ccc(C(F)(F)F)cc2s1)c1cc(Cl)ccc1O,1.23 µM,11.4 µM
COc1cnc2c(c1)C(=O)c1c-2n(CCCNC(C)C)c(=O)c2cc(Cl)ccc12,1.58 µM,30.1 µM
COc1ccc2c(c1)CCCC(Br)C2=O (centres undefined),–,5.92 µM
COc1ccc(-n2cc(-c3cc(OC)c(OC)c(OC)c3)c(C(=O)C(F)(F)F)c2C)cc1,> 100 µM,> 100 µM
COc1cc(C2CC(c3cccc(Br)c3)=NN2C(C)=O)cc(OC)c1OC (centres undefined),11.5 µM,> 58.5 µM
COc1cc(N(CCC#N)CCC#N)ccc1/C(N=Nc1ccc([N+](=O)[O-])cc1)=N/NC(=O)c1cc(Br)ccc1O,5.47 µg/mL,64.3 µg/mL
CS(=O)(=O)Nc1ccc2c(c1)oc(=O)c1ccccc12,–,> 100 µM

# Tested on: NCI/ADR-RES ovarian
# Assay: DTP human tumour cell line panel, 48 h
SMILES,GI50,TGI
CCn1c(-c2nonc2N)nc2c(C#CC(C)(C)O)nc(OC[C@H](N)c3ccccc3)cc21,5.31 µM,13.9 µM
O=C1/C(=C/c2ccc(Br)cc2)COc2ccc(O)c(O)c21,0.665 µM,> 25.8 µM
N#Cc1c(NN)n(C2OC(CO)C(O)C2O)c2ncnc(N)c12 (centres undefined),0.283 µM,4.17 µM
CC(CCC=O)CCOCc1ccccc1 (centres undefined),–,> 100 µM
Cc1ccc(C)c(C2=C(c3cn(C)c4ccccc34)C(=O)NC2=O)c1,> 25 µM,> 25 µM
O=C(Nc1nc2ccc(C(F)(F)F)cc2s1)c1cc(Cl)ccc1O,0.841 µM,> 100 µM
COc1cnc2c(c1)C(=O)c1c-2n(CCCNC(C)C)c(=O)c2cc(Cl)ccc12,0.301 µM,2.75 µM
COc1ccc2c(c1)CCCC(Br)C2=O (centres undefined),–,> 29.9 µM
COc1ccc(-n2cc(-c3cc(OC)c(OC)c(OC)c3)c(C(=O)C(F)(F)F)c2C)cc1,25.8 µM,> 100 µM
COc1cc(C2CC(c3cccc(Br)c3)=NN2C(C)=O)cc(OC)c1OC (centres undefined),0.324 µM,34 µM
COc1cc(N(CCC#N)CCC#N)ccc1/C(N=Nc1ccc([N+](=O)[O-])cc1)=N/NC(=O)c1cc(Br)ccc1O,40.1 µg/mL,116 µg/mL
CS(=O)(=O)Nc1ccc2c(c1)oc(=O)c1ccccc12,–,> 100 µM

# Tested on: OVCAR-8 ovarian
# Assay: DTP human tumour cell line panel, 48 h
SMILES,GI50,TGI
CCn1c(-c2nonc2N)nc2c(C#CC(C)(C)O)nc(OC[C@H](N)c3ccccc3)cc21,4.21 µM,9.44 µM
O=C1/C(=C/c2ccc(Br)cc2)COc2ccc(O)c(O)c21,0.675 µM,–
N#Cc1c(NN)n(C2OC(CO)C(O)C2O)c2ncnc(N)c12 (centres undefined),0.257 µM,7.56 µM
CC(CCC=O)CCOCc1ccccc1 (centres undefined),–,> 100 µM
Cc1ccc(C)c(C2=C(c3cn(C)c4ccccc34)C(=O)NC2=O)c1,> 24.2 µM,> 25 µM
O=C(Nc1nc2ccc(C(F)(F)F)cc2s1)c1cc(Cl)ccc1O,1.12 µM,> 100 µM
COc1cnc2c(c1)C(=O)c1c-2n(CCCNC(C)C)c(=O)c2cc(Cl)ccc12,0.286 µM,2.13 µM
COc1ccc2c(c1)CCCC(Br)C2=O (centres undefined),–,> 31.9 µM
COc1ccc(-n2cc(-c3cc(OC)c(OC)c(OC)c3)c(C(=O)C(F)(F)F)c2C)cc1,> 100 µM,> 100 µM
COc1cc(C2CC(c3cccc(Br)c3)=NN2C(C)=O)cc(OC)c1OC (centres undefined),0.618 µM,> 46.2 µM
COc1cc(N(CCC#N)CCC#N)ccc1/C(N=Nc1ccc([N+](=O)[O-])cc1)=N/NC(=O)c1cc(Br)ccc1O,52.8 µg/mL,> 150 µg/mL
CS(=O)(=O)Nc1ccc2c(c1)oc(=O)c1ccccc12,–,> 100 µM
